Laboratory results: US20150087673A1, “METHODS FOR USING AND BIOMARKERS FOR AMPK-ACTIVATING COMPOUNDS” (RIGEL PHARMACEUTICALS, INC., priority 2013, published 2015)
Marks after values point to notes of the source that are not given here.

Key:
[1] = test system: db/db mice; test: Metabolomics study: metabolite profiling of liver, muscle, adipose tissue and plasma of treated db/db mice; type: in vivo, mouse
Procedure: Maledb/db mice (8 weeks) were orally gavaged once daily with either vehicle or 10 mg/kg compound 309. Liver, muscle, adipose tissue, and plasma from treated mice (n=6/treatment group) were collected 30 minutes after dosing both on day 3 of treatment. Frozen tissue and plasma samples were sent to Metabolon for unbiased metabolite analysis [(Durham, N.C.) See, Evans A, DeHaven C, Barrett T, Mitchell M, Milgram E (2009)—Integrated, nontargeted ultrahigh performance liquid chromatography/electrospray ionization tandem mass spectrometry platform for the identification and relative quantification of the small-molecule complement of biological systems. Anal Chem 81: 6656-6667. Lawton K, Berger A, Mitchell M, Milgram K, Evans A, et al. (2008)—Analysis of the adult human plasma metabolome. Pharmacogenomics 9: 383-397. Reitman Z J, Jin G, Karoly E D, Spasojevic I, Yang J, et al. (2011) Profiling the effects of isocitrate dehydrogenase 1 and 2 mutations on the cellular metabolome. PNAS 108: […].] Biochemical data were analyzed using Welch's two-sample t-tests.
Metabolite profiling of tissues from db/db mice orally dosed with either vehicle or 10 mg/kg compound 309 was used to characterize in detail the effects of the present AMPK activators on nutrient pathways in a commonly used mouse model of type 2 diabetes. […] Since AMPK activation results in both acute and chronic changes to metabolic pathways, samples from non-fasted mice treated for three days with compound 309 were analyzed. Samples were collected thirty minutes after compound dosing when compound 309 plasma levels as well as tissue AMPK activation were maximal.

[2] = test system: gluconeogenesis; test: Gluconeogenesis in vitro; type: cell-based
[3] = Adipose, 10 mg/kg oral once daily, day 3, 30 min after dosing
[4] = Liver, 10 mg/kg oral once daily, day 3, 30 min after dosing
[5] = Muscle, 10 mg/kg oral once daily, day 3, 30 min after dosing
[6] = Plasma, 10 mg/kg oral once daily, day 3, 30 min after dosing

COc1ccc(C(=O)C2CCN(C(=O)c3ccc(C(=O)NC4CCN(Cc5ccc(C#N)cc5)CC4)cn3)CC2)cc1 [Compound 309, N-(1-(4-cyanobenzyl)piperidin-4-yl)-6-(4-(4-methoxybenzoyl)piperidine-1-carbonyl)nicotinamide]
relative levels of the other amino acids ([1]; 10 mg/kg): not similarly affected
2-methylbutyrlcarnitine (C5) Ratio (Compound 309/Vehicle) [1, 3]: 0.57^††
3-hydroxybutyrate (BHBA) Ratio (Compound 309/Vehicle) [1, 3]: 1.68**
3-hydroxyisobutyrate Ratio (Compound 309/Vehicle) [1, 3]: 1.13
3-methyl-2-oxobutyrate Ratio (Compound 309/Vehicle) [1, 3]: 1
3-methyl-2-oxovalerate Ratio (Compound 309/Vehicle) [1, 3]: 1.31**
4-methyl-2-oxopentanoate Ratio (Compound 309/Vehicle) [1, 3]: 1.23
alanine Ratio (Compound 309/Vehicle) [1, 3]: 1
arginine Ratio (Compound 309/Vehicle) [1, 3]: 0.86^††
asparagine Ratio (Compound 309/Vehicle) [1, 3]: 0.84
aspartate Ratio (Compound 309/Vehicle) [1, 3]: 0.72^††
butyrylcarnitine Ratio (Compound 309/Vehicle) [1, 3]: 0.82
cysteine Ratio (Compound 309/Vehicle) [1, 3]: 0.62^†
glutamate Ratio (Compound 309/Vehicle) [1, 3]: 0.89
glutamine Ratio (Compound 309/Vehicle) [1, 3]: 0.95
glycine Ratio (Compound 309/Vehicle) [1, 3]: 0.81
hydroxybutyrylcarnitine Ratio (Compound 309/Vehicle) [1, 3]: 1.7**
hydroxylisovaleroyl carnitine Ratio (Compound 309/Vehicle) [1, 3]: 0.86
isobutyrylcarnitine Ratio (Compound 309/Vehicle) [1, 3]: 0.57^††
isoleucine Ratio (Compound 309/Vehicle) [1, 3]: 0.73
isovalerylcarnitine Ratio (Compound 309/Vehicle) [1, 3]: 0.58^††
leucine Ratio (Compound 309/Vehicle) [1, 3]: 0.78
lysine Ratio (Compound 309/Vehicle) [1, 3]: 0.74
methionine Ratio (Compound 309/Vehicle) [1, 3]: 0.87
phenylalanine Ratio (Compound 309/Vehicle) [1, 3]: 0.82
proline Ratio (Compound 309/Vehicle) [1, 3]: 0.86
propionylcarnitine Ratio (Compound 309/Vehicle) [1, 3]: 0.77
serine Ratio (Compound 309/Vehicle) [1, 3]: 0.85
threonine Ratio (Compound 309/Vehicle) [1, 3]: 0.77^†
tryptophan Ratio (Compound 309/Vehicle) [1, 3]: 0.9
tyrosine Ratio (Compound 309/Vehicle) [1, 3]: 0.85
valine Ratio (Compound 309/Vehicle) [1, 3]: 0.81
2-methylbutyrlcarnitine (C5) Ratio (Compound 309/Vehicle) [1, 4]: 0.76
3-hydroxybutyrate (BHBA) Ratio (Compound 309/Vehicle) [1, 4]: 1.15
3-methylglutaryl carnitine (C6) Ratio (Compound 309/Vehicle) [1, 4]: 0.57^††
N-acetylleucine Ratio (Compound 309/Vehicle) [1, 4]: 0.94
alanine Ratio (Compound 309/Vehicle) [1, 4]: 1.4**
alpha-hydroxyisovalerate Ratio (Compound 309/Vehicle) [1, 4]: 0.86
arginine Ratio (Compound 309/Vehicle) [1, 4]: 1.67
aspartate Ratio (Compound 309/Vehicle) [1, 4]: 1.59**
butyrylglycine Ratio (Compound 309/Vehicle) [1, 4]: 0.41^††
cysteine Ratio (Compound 309/Vehicle) [1, 4]: 0.97
glutamate Ratio (Compound 309/Vehicle) [1, 4]: 1.61**
glutamine Ratio (Compound 309/Vehicle) [1, 4]: 1.04
glycine Ratio (Compound 309/Vehicle) [1, 4]: 0.96
histidine Ratio (Compound 309/Vehicle) [1, 4]: 1.16*
hydroxybutyrylcarnitine Ratio (Compound 309/Vehicle) [1, 4]: 1.45**
hydroxylisovaleroyl carnitine Ratio (Compound 309/Vehicle) [1, 4]: 1
isoleucine Ratio (Compound 309/Vehicle) [1, 4]: 0.86^††
isovalerylcarnitine Ratio (Compound 309/Vehicle) [1, 4]: 0.54^††
leucine Ratio (Compound 309/Vehicle) [1, 4]: 0.94
lysine Ratio (Compound 309/Vehicle) [1, 4]: 1.11*
methionine Ratio (Compound 309/Vehicle) [1, 4]: 1.03
phenylalanine Ratio (Compound 309/Vehicle) [1, 4]: 0.96
proline Ratio (Compound 309/Vehicle) [1, 4]: 0.94
propionylcarnitine Ratio (Compound 309/Vehicle) [1, 4]: 0.73
serine Ratio (Compound 309/Vehicle) [1, 4]: 1.19
threonine Ratio (Compound 309/Vehicle) [1, 4]: 0.94
tryptophan Ratio (Compound 309/Vehicle) [1, 4]: 0.99
tyrosine Ratio (Compound 309/Vehicle) [1, 4]: 1.08
valine Ratio (Compound 309/Vehicle) [1, 4]: 0.87^††
2-methylbutyrlcarnitine (C5) Ratio (Compound 309/Vehicle) [1, 5]: 0.63^††
3-hydroxybutyrate (BHBA) Ratio (Compound 309/Vehicle) [1, 5]: 2.2**
3-hydroxyisobutyrate Ratio (Compound 309/Vehicle) [1, 5]: 1.33*
3-methyl-2-oxovalerate Ratio (Compound 309/Vehicle) [1, 5]: 0.78
4-methyl-2-oxopentanoate Ratio (Compound 309/Vehicle) [1, 5]: 0.96
alanine Ratio (Compound 309/Vehicle) [1, 5]: 0.96
alpha-hydroxyisovalerate Ratio (Compound 309/Vehicle) [1, 5]: 0.85
arginine Ratio (Compound 309/Vehicle) [1, 5]: 0.71
aspartate Ratio (Compound 309/Vehicle) [1, 5]: 0.82
butyrylcarnitine Ratio (Compound 309/Vehicle) [1, 5]: 0.62
butyrylglycine Ratio (Compound 309/Vehicle) [1, 5]: 1.07
glutamate Ratio (Compound 309/Vehicle) [1, 5]: 1.15
glutamine Ratio (Compound 309/Vehicle) [1, 5]: 1.04
glycine Ratio (Compound 309/Vehicle) [1, 5]: 0.96
histidine Ratio (Compound 309/Vehicle) [1, 5]: 1
hydroxybutyrylcarnitine Ratio (Compound 309/Vehicle) [1, 5]: 1.34*
hydroxylisovaleroyl carnitine Ratio (Compound 309/Vehicle) [1, 5]: 0.86^†
isobutyrylcarnitine Ratio (Compound 309/Vehicle) [1, 5]: 0.64^††
isoleucine Ratio (Compound 309/Vehicle) [1, 5]: 0.81^††
isovalerylcarnitine Ratio (Compound 309/Vehicle) [1, 5]: 0.58^††
leucine Ratio (Compound 309/Vehicle) [1, 5]: 0.83^†
lysine Ratio (Compound 309/Vehicle) [1, 5]: 0.96
methionine Ratio (Compound 309/Vehicle) [1, 5]: 0.78^†
phenylalanine Ratio (Compound 309/Vehicle) [1, 5]: 0.91
proline Ratio (Compound 309/Vehicle) [1, 5]: 0.92
propionylcarnitine Ratio (Compound 309/Vehicle) [1, 5]: 0.87^†
serine Ratio (Compound 309/Vehicle) [1, 5]: 0.89
threonine Ratio (Compound 309/Vehicle) [1, 5]: 0.89
tiglyl carnitine Ratio (Compound 309/Vehicle) [1, 5]: 0.98
tryptophan Ratio (Compound 309/Vehicle) [1, 5]: 0.95
tyrosine Ratio (Compound 309/Vehicle) [1, 5]: 0.96
valine Ratio (Compound 309/Vehicle) [1, 5]: 0.77^††
2-hydroxy-3-methylvalerate Ratio (Compound 309/Vehicle) [1, 6]: 0.91
2-methylbutyrlcarnitine (C5) Ratio (Compound 309/Vehicle) [1, 6]: 0.56^††
3-hydroxybutyrate (BHBA) Ratio (Compound 309/Vehicle) [1, 6]: 1.93**
3-hydroxyisobutyrate Ratio (Compound 309/Vehicle) [1, 6]: 1.69**
3-methyl-2-oxobutyrate Ratio (Compound 309/Vehicle) [1, 6]: 1.17
3-methyl-2-oxovalerate Ratio (Compound 309/Vehicle) [1, 6]: 1.06
3-methylglutaryl carnitine (C6) Ratio (Compound 309/Vehicle) [1, 6]: 0.55^††
4-methyl-2-oxopentanoate Ratio (Compound 309/Vehicle) [1, 6]: 1.05
N-acetylisoleucisne Ratio (Compound 309/Vehicle) [1, 6]: 1.11
N-acetylleucine Ratio (Compound 309/Vehicle) [1, 6]: 0.96
alanine Ratio (Compound 309/Vehicle) [1, 6]: 1.22
alpha-hydroxyisocaproate Ratio (Compound 309/Vehicle) [1, 6]: 0.91
alpha-hydroxyisovalerate Ratio (Compound 309/Vehicle) [1, 6]: 0.91
arginine Ratio (Compound 309/Vehicle) [1, 6]: 0.95
asparagine Ratio (Compound 309/Vehicle) [1, 6]: 0.89
butyrylcarnitine Ratio (Compound 309/Vehicle) [1, 6]: 0.65^†
butyrylglycine Ratio (Compound 309/Vehicle) [1, 6]: 0.41^††
cysteine Ratio (Compound 309/Vehicle) [1, 6]: 0.94
glutamate Ratio (Compound 309/Vehicle) [1, 6]: 1.22*
glutamine Ratio (Compound 309/Vehicle) [1, 6]: 1.03
glycine Ratio (Compound 309/Vehicle) [1, 6]: 1.03
histidine Ratio (Compound 309/Vehicle) [1, 6]: 0.99
hydroxybutyrylcarnitine Ratio (Compound 309/Vehicle) [1, 6]: 2.28**
isobutyrylcarnitine Ratio (Compound 309/Vehicle) [1, 6]: 0.41^††
isoleucine Ratio (Compound 309/Vehicle) [1, 6]: 0.75^††
isovalerylcarnitine Ratio (Compound 309/Vehicle) [1, 6]: 0.45^††
isovalerylglycine Ratio (Compound 309/Vehicle) [1, 6]: 0.67^††
leucine Ratio (Compound 309/Vehicle) [1, 6]: 0.75^†
lysine Ratio (Compound 309/Vehicle) [1, 6]: 0.91
methionine Ratio (Compound 309/Vehicle) [1, 6]: 0.88
phenylalanine Ratio (Compound 309/Vehicle) [1, 6]: 0.87
proline Ratio (Compound 309/Vehicle) [1, 6]: 0.96
propionylcarnitine Ratio (Compound 309/Vehicle) [1, 6]: 1.07
serine Ratio (Compound 309/Vehicle) [1, 6]: 0.83^†
threonine Ratio (Compound 309/Vehicle) [1, 6]: 0.9
tigloylglycine Ratio (Compound 309/Vehicle) [1, 6]: 0.96
tryptophan Ratio (Compound 309/Vehicle) [1, 6]: 1.02
tyrosine Ratio (Compound 309/Vehicle) [1, 6]: 1.11
valine Ratio (Compound 309/Vehicle) [1, 6]: 0.91
hydroxybutyrylcarnitine levels ([1]; all compartments sampled, 10 mg/kg): similarly increased
intermediates of the catabolic pathways of all three BCAA ([1]; all three major metabolic organs and plasma, 10 mg/kg): Marked reductions
effects on glucose metabolic pathways in global metabolite profiling ([1]; data not shown): no dramatic effects
relative levels of butyrylglycine and butyrylcarnitine ([1]; liver and plasma, 10 mg/kg): reduction
BHBA level vs vehicle ([1]; liver, 10 mg/kg oral once daily, day 3): no difference
3-hydroxybutyrate (BHBA) level vs vehicle ([1]; muscle, fat and plasma, 10 mg/kg oral once daily, day 3): significant elevation
gluconeogenesis [2]: reduction
